pIC50: −log10 of the molar value. Entries after “also recorded” stand apart in the source; their conditions may differ. Structures can show the parent of a compound that is named as a salt. Where two headings read alike, the source gives them in different places. Each block holds one compound with its values, some of them ahead of it.
Tests used:
LOXL2 [1] = target: T1, LOXL2 (Homo sapiens (Human), UniProt Q9Y4K0); experiment: Human LOXL2 CCM Assay (Amplex Red amine oxidase activity); type: biochemical; details: concentrated conditioned media from CHO cells expressing human LOXL2; 2 h at 37° C.
Experimental: Human LOXL2/CHO and human LOX/HEK stable cell lines were cultured under normal growth conditions in 15 cm tissue culture plates until cells were ˜80% confluent. Cells were then washed with PBS before the addition of 25-30 mL serum-free media (Phenol red-free DMEM/F12 mix w/glutamax containing pen/strep, 10-100 μM CuCl2±0.1% BSA). Cells were incubated at 37° C., 5% CO2 in serum-free media for 40-48 hours before the conditioned media was removed and centrifuged at 2000 rpm for 5 min at 4° C. to pellet cells/debris. The media was concentrated 10-20× using 10-30 MWCO centriprep columns according to the manufacturer's instructions (EMD Millipore, Billerica, Mass.) before aliquoting and storing at −80° C.
LOXL2 amine oxidase activity was evaluated by measuring Amplex Red fluorescence using 10-20× concentrated conditioned media (non BSA-containing) from CHO cells stably expressing human LOXL2. […] After the 2 h incubation, 5 μL of 10 mM 1,5-Diaminopentane (DAP) diluted in Assay Buffer and 10 μL of Amplex Red Mix (8.5 μL Assay Buffer+0.5 μL of 10 mM Amplex Red+1 μL of 500 U/ml Horseradish Peroxidase) were added and the plate mixed and immediately placed on the FlexStation for fluorescence measurements. Fluorescence was read in kinetic mode every 2 min for 0.5-1 hour at excitation=544 and emission=590. The amine oxidase activity was calculated from the slope of the linear portion of the curve. […]

[2] = Stability studies (accelerated and ICH); type: physicochemical
Experimental: The compounds were assayed according to appearance, purity, related Substances, chiral purity, moisture, DSC, and XRPD

[3] = Solid form storage stability at elevated temperature/humidity; type: physicochemical
Experimental: All retrieved solids from the crystallisation attempts were stored at 40° C. and 75% RH.

[4] = as above; type: physicochemical; remark: listed apart in the source
[5] = Experimental: After each addition of solvent, the system was shaken gently for 10 minutes at 50° C. and then allowed to stand at room temperature for 5 min before the addition of a new aliquot of solvent. After the assessment was completed, any suspensions obtained were matured and clear solutions were cooled at 5° C.
Supernatants from maturation were allowed to slowly evaporate at ambient conditions.

[6] = Preliminary free base solubility assessment of Compound I; type: physicochemical; details: organic solvent or mixture, thermodynamic from solid
Experimental: After each addition of solvent, the system was shaken at 50° C. for 10 min and then allowed to stand at room temperature for 5 min before the addition of a new aliquot of solvent.

LOXL2 [7] = target: T1, LOXL2; experiment: In vitro assays, potency of enantiomers; type: biochemical
physchem = details: 25 °C, water, thermodynamic from solid
[8] = Aqueous and organic solubility of Form 1 of Compound 2; type: physicochemical
[9] = Gravimetric Vapor Sorption (GVS); type: physicochemical; details: 0 to 90% RH
Text: Gravimetric Vapor Sorption (GVS) isotherms were obtained using an SMS DVS Intrinsic moisture sorption analyser, controlled by DVS Intrinsic Control software v1.0.1.2 (or v 1.0.1.3), over a range of 0 to 90% relative humidity (RH).

Forced degradation study = type: physicochemical
[10] = Clear point / cloud point in IPA:water (Crystal 16); type: physicochemical; details: mixture of Forms 1 and 4
Experimental: The samples were then cooled from 70 back to −8° C. at the same rate. The clear point upon heating (at 100% transmission) and the cloud point upon re-cooling (<100% transmission) were recorded using the Crystal 16 instrument and the data is shown in Table 17. XRPD analysis was performed on all solids obtained post cooling.

T1 sequence (Q9Y4K0 26-774): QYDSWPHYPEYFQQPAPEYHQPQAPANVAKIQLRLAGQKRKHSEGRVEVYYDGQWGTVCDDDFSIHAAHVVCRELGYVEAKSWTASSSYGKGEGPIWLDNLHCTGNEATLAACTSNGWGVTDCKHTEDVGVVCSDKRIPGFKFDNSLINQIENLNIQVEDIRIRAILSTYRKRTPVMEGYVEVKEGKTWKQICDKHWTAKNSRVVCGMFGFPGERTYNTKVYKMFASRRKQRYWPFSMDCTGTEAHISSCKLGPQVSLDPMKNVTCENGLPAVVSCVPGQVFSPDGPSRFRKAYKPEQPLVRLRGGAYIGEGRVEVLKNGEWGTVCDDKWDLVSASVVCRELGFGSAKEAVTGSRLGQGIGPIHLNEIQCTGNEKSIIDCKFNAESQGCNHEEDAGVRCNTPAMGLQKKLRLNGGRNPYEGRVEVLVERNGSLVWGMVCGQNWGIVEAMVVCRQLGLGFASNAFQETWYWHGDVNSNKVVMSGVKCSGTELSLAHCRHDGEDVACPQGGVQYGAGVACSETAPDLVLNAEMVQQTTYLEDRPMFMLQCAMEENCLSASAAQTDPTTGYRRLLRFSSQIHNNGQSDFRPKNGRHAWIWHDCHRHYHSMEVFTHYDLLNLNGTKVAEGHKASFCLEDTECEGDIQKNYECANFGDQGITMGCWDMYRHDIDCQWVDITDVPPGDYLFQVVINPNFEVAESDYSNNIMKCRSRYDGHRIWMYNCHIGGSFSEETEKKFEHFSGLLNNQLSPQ

pIC50 (LOXL2 [1]): > 6.52
Changes in purity or absorption of moisture ([2]; 3 month accelerated condition (40° C./75% RH)): no significant changes
SMILES: Cl.NCc1cc(Oc2cccc(C(=O)N3C[C@@H](O)[C@H](F)C3)c2)nc(C(F)(F)F)c1 [Compound 1, (R,R)-trans-(3-((4-(aminomethyl)-6-(trifluoromethyl)pyridin-2-yl)oxy)phenyl)(3-fluoro-4-hydroxypyrrolidin-1-yl)methanone, hydrochloride salt]

7 days storage @ 40° C./75% RH, appearance ([3]; 40° C./75% RH): Waxy/glassy solid +
7 days storage @ 40° C./75% RH, resulting XRPD form ([3]; 40° C./75% RH): particles - Form 2
Physical change over time ([3]; over time): converts over time to a waxy solid
Behaviour on storage ([3]; storage conditions (40° C. and 75% RH) for 1 week): remained unchanged
Thermal stability [4]: thermally stable
SMILES: Cl.NCc1cc(Oc2cccc(C(=O)N3C[C@@H](O)[C@H](F)C3)c2)nc(C(F)(F)F)c1 [Form 2 of Compound 1]

solubility [5]: 200 − 100
Behaviour at 40° C./75% RH ([3]; 40° C./75% RH): deliquesces
7 days storage @ 40° C./75% RH, appearance ([3]; 40° C./75% RH): Glassy material
SMILES: Cl.NCc1cc(Oc2cccc(C(=O)N3C[C@@H](O)[C@H](F)C3)c2)nc(C(F)(F)F)c1 [Amorphous Compound 1]

solubility at 10 min ([6]; 2-Propanol): > 100 mg/mL
solubility at 10 min ([6]; Acetonitrile): > 100 mg/mL
solubility at 10 min ([6]; Dichloromethane): > 100 mg/mL
solubility at 10 min ([6]; Ethanol): > 100 mg/mL
solubility at 10 min ([6]; Ethyl Acetate): > 100 mg/mL
solubility at 10 min ([6]; Hexane): > 100 mg/mL
solubility at 10 min ([6]; Tetrahydrofuran): > 100 mg/mL
solubility at 10 min ([6]; Toluene, up to 50 vol): > 20 mg/mL
Potency relative to the (S,S)-isomer (LOXL2 [7]): less than 2 fold
SMILES: NCc1cc(Oc2cccc(C(=O)N3C[C@@H](O)[C@H](F)C3)c2)nc(C(F)(F)F)c1 [Compound I, (R,R)-trans-(3-((4-(aminomethyl)-6-(trifluoromethyl)pyridin-2-yl)oxy)phenyl)(3-fluoro-4-hydroxypyrrolidin-1-yl)methanone]

XRPD change on heating and storage ([3]; heating to 130° C. and upon the storage conditions): changed to Form 1
SMILES: CS(=O)(=O)O.NCc1cc(Oc2cccc(C(=O)N3C[C@@H](O)[C@H](F)C3)c2)nc(C(F)(F)F)c1 [Form 3 of Compound 2]

Solubility in maturation solvents [5]: insoluble
Behaviour on storage ([3]; 40° C. and 75% RH, after 24 hours): deliquescing
Form change on storage ([3]; 40° C./75% RH for one week): transforms to Form 2
7 days storage @ 40° C./75% RH, appearance ([3]; 40° C./75% RH): Waxy/glassy solid +
7 days storage @ 40° C./75% RH, resulting XRPD form ([3]; 40° C./75% RH): particles - Form 2
solubility (physchem): ≥ 1000 mg/mL
SMILES: Cl.NCc1cc(Oc2cccc(C(=O)N3C[C@@H](O)[C@H](F)C3)c2)nc(C(F)(F)F)c1 [Form 1 of Compound 1]
Hygroscopicity [4]: hygroscopic solid; also recorded: hygroscopic form

solubility ([8]; aqueous medium, pH 2, aqueous buffer, read-out: Aqueous Solubility): > 107 mg/mL
solubility ([8]; aqueous medium, pH 7.4, aqueous buffer, read-out: Aqueous Solubility): > 107 mg/mL
solubility ([8]; aqueous medium, pH 10, aqueous buffer, read-out: Aqueous Solubility): > 85 mg/mL
solubility ([8]; ethanol, organic solvent or mixture, EtOH, read-out: Organic Solubility, Qualitative Solubility): ~15 mg/mL
solubility ([8]; ethanol/water (90:10), isopropanol/water (90:10), organic solvent or mixture, read-out: Organic Solubility, Qualitative Solubility): ~50 mg/mL
solubility ([8]; methanol, tetrahydrofuran/water (90:10), organic solvent or mixture, read-out: Organic Solubility, Qualitative Solubility): ~100 mg/mL
solubility ([8]; organic solvent or mixture, isopropyl acetate, isopropanol, methyl-ethyl ketone, acetone, ethanol, methyl-t-butyl ether, 1,4 dioxane, toluene, tetrahydrofuran, dichloromethane, acetonitrile, read-out: Organic Solubility, Qualitative Solubility): ≤ 10 mg/mL
solubility ([8]; water, dimethyl sulfoxide, read-out: Organic Solubility, Qualitative Solubility): > 200 mg/mL
SMILES: CS(=O)(=O)O.NCc1cc(Oc2cccc(C(=O)N3C[C@@H](O)[C@H](F)C3)c2)nc(C(F)(F)F)c1 [Form 1 of Compound 2]
XRPD after the GVS analysis [9]: X-ray powder diffraction (XRPD): Unchanged
Polymorph stability on storage ([3]; 7 days at 40° C./75% RH and 25° C./97% RH): Form 1, which is stable for 7 days at 40° C./75% RH and 25° C./97%

Form change after GVS and storage ([3]; after GVS analysis and 7 days at 40° C./75% RH): phase transformation towards Form 1
Form conversion in humidity ([3]; in humidity): converts to Form 1
Form change on storage ([4]; 7 days at 25° C./97% RH): change also occurs
SMILES: CS(=O)(=O)O.NCc1cc(Oc2cccc(C(=O)N3C[C@@H](O)[C@H](F)C3)c2)nc(C(F)(F)F)c1 [Form 2 of Compound 2]

All attributes tested (appearance, purity, related substances, chiral purity, moisture, DSC, XRPD) ([2]; 1 month data, long-term and accelerated conditions of 1-year and 2-year ICH studies): within limits
Solid state stability, heat (Forced degradation study; solid, 100° C., 24 hours): stable
Solid state stability, light (Forced degradation study; solid, light max 365 nm, 24 hours): stable
Solution state stability, heat (Forced degradation study; solution, 50° C. for 24 hours): stable
Clear Point Temperature ([10]; 5 mg in 1 mL IPA:water 95:5): 6.9 °C
Clear Point Temperature ([10]; 10 mg in 1 mL IPA:water 95:5): 20.3 °C
Clear Point Temperature ([10]; 20 mg in 1 mL IPA:water 95:5): 37.2 °C
Clear Point Temperature ([10]; 30 mg in 1 mL IPA:water 95:5): 48.5 °C
Cloud Point Temperature ([10]; 30 mg in 1 mL IPA:water 95:5): −7.8 °C
Clear Point Temperature ([10]; 40 mg in 1 mL IPA:water 95:5): 55.8 °C
Cloud Point Temperature ([10]; 40 mg in 1 mL IPA:water 95:5): −1.8 °C
Clear Point Temperature ([10]; 60 mg in 1 mL IPA:water 95:5): 64 °C
Cloud Point Temperature ([10]; 60 mg in 1 mL IPA:water 95:5): 14.5 °C
Clear Point Temperature ([10]; 70 mg in 1 mL IPA:water 95:5): 68.6 °C
Cloud Point Temperature ([10]; 70 mg in 1 mL IPA:water 95:5): 24.7 °C
SMILES: NCc1cc(Oc2cccc(C(=O)N3C[C@@H](O)[C@H](F)C3)c2)nc(C(F)(F)F)c1 [Compound 2, (R,R)-trans-(3-((4-(aminomethyl)-6-(trifluoromethyl)pyridin-2-yl)oxy)phenyl)(3-fluoro-4-hydroxypyrrolidin-1-yl)methanone, methanesulfonate salt]

— patent US10774069B2, “Crystalline forms of a lysyl oxidase-like 2 inhibitor and methods of making” (PHARMAKEA, INC., priority 2016, dated 2020)
